Measured values published in patent EP0791071B1, “ASSAY FOR PROLINE IMINOPEPTIDASE AND OTHER HYDROLYTIC ACTIVITIES” (LITMUS CONCEPTS, INC., priority 1994, dated 1996).
Read-outs that look alike come from different tables or passages of the source. Non-standard residues stand in square brackets, D forms with d. Residues, ends and D or L forms follow the SMILES beside them. *: point of attachment. Sta = CC(C)C[C@H](N)[C@@H](O)CC(=O)O; AMC = Cc1cc(=O)oc2cc(N*)ccc12; Isovaleryl = CC(C)CC(=O)*; Boc = CC(C)(C)OC(=O)*

Columns and labels:
[1] = tested on: Mobiluncus curtisii ATCC strain 35241 hydrolysis of L-prolyl-beta-naphthylamide (proline iminopeptidase activity); assay: Enzyme inhibitors on hydrolysis of L-prolyl-beta-naphthylamide, PDMAC chromogen (Experiment VIII); type: biochemical; details: PRO.NAM conjugate, 1.5 hours at room temperature, water control 2
Method: 150 µL cell suspension, 10 µL conjugate, (PRO.NAM), 10 µL inhibitor, and 30 µL buffer were added to test tubes, and the suspension incubated for 1.5 hours at room temperature. 80 µL of the suspension was removed from the incubation tubes and added to 80 µL of the chromogen solution in a second set of tubes and the color formation noted.

[2] = tested on: Mobiluncus curtisii ATCC strain 35241 cell hydrolysis of Z-L-arg.L-arg.AFC; assay: Enzyme inhibitors on cell hydrolysis of Z-ARG.ARG.AFC, PDMAC chromogen (Experiment X); type: biochemical; set-up: key: 0: no red color formation; 0.25: faintest red color detectable visually; 0.5: distinct red color; red color between 1.0 and 2.0 in intensity; 2.0: darkest red color possible in test system; details: Z-ARG.ARG.AFC as the conjugate, 1.5 hours at room temperature, water control 2
Method: (§1) 50 µL cell suspension, 5 µL conjugate, 10 µL inhibitor, and 35 µL buffer were added to test tubes, and the suspension incubated for 1.5 hours at room temperature. 90 µL of the incubated suspension was added to 90 µL of the chromogen solution and the color formation noted.

[3] = tested on: Mobiluncus curtisii ATCC strain 35241 cell hydrolysis of t-boc-L-val.L-leu.L-lys.7-amino-4-methyl coumarin; assay: Enzyme inhibitors on cell hydrolysis of t-boc.VAL.LEU.LYS.7-AMC, PDMAC chromogen (Experiment X); type: biochemical; set-up: key to TEST COLOR: -: no red color formation; +/-: possible red color formation; +: clearly visible red color formation; ++: extremely intense red color formation; details: for TEST COLOR: t-boc.VAL.LEU.LYS.7-AMC as the conjugate, 1.5 hours at room temperature, no inhibitor 2
Method: as §1

[4] = tested on: Mobiluncus curtisii ATCC strain 35241 hydrolysis of the conjugate, L-arginyl-beta-naphthylamide (ARG.NAM); type: biochemical; details: pH 8.0 Tris, 1 hour at room temperature, water control 2
Method: (§2) 20 µL cell suspension, 50 µL water, 10 µL salt solution, 10 µL buffer, and 5 µL conjugate, ARG.NAM, were added to test tubes, and the suspension incubated for 1 hour at room temperature. 100 µL of the PDMAC chromogen reagent was added, and red color formation after 5 minutes was noted.

[5] = tested on: Mobiluncus curtisii ATCC strain 35241 cell hydrolysis of the conjugate, L-prolyl-beta-naphthylamide; type: biochemical; set-up: key: -: no red color formation; +/-: possible red color formation; +: clearly visible red color formation; ++: extremely intense red color formation; details: PRO.NAM conjugate, 2 minutes incubation, read after 3 minutes, water control 2
Method: 30 µL cell suspension, 10 µL conjugate, PRO.NAM, and 10 µL salt solution or water were added to test tubes, and the suspension incubated for 2 minutes at room temperature. 20 µL of the suspension was removed from the incubation tubes and added to Fast Garnet GBC chromogenic indicator laminae. After 3 minutes, the Fast Garnet GBC indicator laminae were examined for a red color.

[6] = tested on: proline iminopeptidase activity in Mobiluncus curtsii ATCC strain 35241 cells; assay: Diazonium dye indicator laminae in test devices with PRO.NAM lamina: color with Mobiluncus curtisii suspension (Experiment III); type: biochemical, Mobiluncus curtisii ATCC strain 35241; details: dye indicator lamina and PRO.NAM lamina in test device; about 40 microliters cell suspension; 10 minutes at room temperature
Method: Chromogenic indicator laminae of Fast Garnet GBC, 15 mg; Fast Black K, 57 mg; Fast Dark Blue, Fast Bordeaux, Fast Violet, and Fast Red B, 21 mg prepared as described in P[…] and proline iminopeptidase-hydrolyzable conjugate, L-prolyl-beta-naphthylamide, (13 mg/ml) prepared as described in P[…] were manually assembled into test devices (P[…]). • 1. Tests of device performance with the reporter group, beta-naphthylamine. Approximately 40 microliters of 500 micromolar beta-naphthylamine solution was added to the manually assembled kits. After 10 minutes, color formation was noted. • 2. Test kit performance with proline iminopeptidase activity in Mobiluncus curtsii ATCC strain 35241 cells.
Approximately 40 microliters of the Mobiluncus curtisii ATCC strain 35241 suspension were added to each test kit. After 10 minutes at room temperature, the appearance of color was determined.

[7] = tested on: Mobiluncus curtisii ATCC strain 35241 hydrolysis of the conjugate, L-prolyl-beta-naphthylamide; type: biochemical; set-up: key: 0: no red color formation; 0.25: faintest red color detectable visually; 0.5: distinct red color; red color between 1.0 and 2.0 in intensity; 2.0: darkest red color possible in test system; details: 10 µL of 100 mM metal salt, PRO.NAM conjugate
Method: (§3) 20 µL cell suspension, 40 µL water, 10 µL salt solution, and 10 µL conjugate solutions (PRO.NAM or ARG.NAM) were added to test tubes, and mixed thoroughly. Immediately thereafter, 20 µL aliquots were removed from each tube, and added directly to Fast Garnet GBC chromogenic indicator laminae. After 5 minutes at room temperature, the Fast Garnet GBC sheets were examined for the formation of a red color.

[8] = tested on: Mobiluncus curtisii ATCC strain 35241 hydrolysis of the conjugate, L-arginyl-beta-naphthylamide; assay: Manganese and zinc chlorides on hydrolysis of ARG.NAM at high and low pH, Fast Garnet GBC laminae (Experiment XIII); type: biochemical; details: 10 µL of 100 mM metal salt
Method: as §3

[9] = tested on: Mobiluncus curtisii ATCC Strain 35241; assay: Hydrolysis of conjugates by microbial cells, PDMAC chromogen in solution (Experiment IV); type: biochemical; details: preparation and pH not given
Method: 50 µL distilled water, 25 µL buffer, and 25 µL microbial suspension were mixed. 5 µL conjugate was added, and the mixture allowed to incubate for 10 minutes at room temperature. 100 µL PDMAC was added to each incubation, and the color score noted.

[10] = tested on: Mobiluncus curtisii ATCC strain 35241 proline iminopeptidase activity; assay: Inhibition of proline iminopeptidase activity by detergents, PRO.NAM conjugate, PDMAC chromogen (Experiment VII); type: biochemical
Method: To one set of four test tubes were added 20 µL cell suspension, 5 µL conjugate, and 65 µL distilled water. After 10 minutes incubation at room temperature, 10 µL detergent and 90 µL chromogen solution was added and the color formation noted. To a second set of four test tubes were added 20 µL cell suspension, 5 µL conjugate, and 65 µL detergent solution. After 10 minutes incubation of these components at room temperature, 10 µL water and 90 µL chromogen solution was added and the color formation noted.

[11] = tested on: Mobiluncus curtisii ATCC strain 35241 hydrolysis of the conjugate, L-arginyl-beta-naphthylamide (ARG.NAM); type: biochemical; set-up: key: -: no red color formation; +/-: possible red color formation; +: clearly visible red color formation; ++: extremely intense red color formation; details: metal salt 5 mM, pH 8.0 Tris, 1 hour at room temperature, water control 2
Method: as §2

[12] = tested on: Mobiluncus curtisii ATCC strain 35241 hydrolysis of the conjugate, L-arginyl-beta-naphthylamide (ARG.NAM); type: biochemical; set-up: key: 0: no red color formation; 0.25: faintest red color detectable visually; 0.5: distinct red color; red color between 1.0 and 2.0 in intensity; 2.0: darkest red color possible in test system; details: metal salt 5 mM, pH 8.0 Tris, 1 hour at room temperature, water control 2
Method: as §2

Molecule: O[C@H](CS)[C@H](O)CS (racemic) [DTT, dithiothreitol]
- TEST COLOR ([1]; inhibitor 1 mM): 2
- TEST COLOR ([2]; CONCENTRATION (Mm) 1): 2
- TEST COLOR ([3]; CONCENTRATION (Mm) 1): 2

Molecule: [Ca+2].[Cl-].[Cl-] [CaCl2]
- TEST COLOR ([4]; metal salt 5 mM): 2
- TEST COLOR ([5]; metal salt 20 mM): 2

Molecule: O=C(O)CN(CCOCCOCCN(CC(=O)O)CC(=O)O)CC(=O)O [EGTA, ethyleneglycol-bis-(beta-aminoethyl ether)-N,N,N',N'-tetraacetic acid]
- TEST COLOR ([1]; inhibitor 5 mM): 2
- TEST COLOR ([2]; CONCENTRATION (Mm) 5): 2
- TEST COLOR ([3]; CONCENTRATION (Mm) 5): 2

Molecule: Cc1ccccc1N=Nc1ccc([N+]#N)c(C)c1 [Fast Garnet GBC]
- color formation with Mobiluncus Curtisii [6]: red

Molecule: [Cl][Mn][Cl] [MnCl2, manganese chloride]
- TEST COLOR ([4]; metal salt 5 mM): 1
- TEST COLOR ([5]; metal salt 20 mM): 2
- COLOR SCORE 5 MINUTES ([7]; pH 5, without salt 1): 1
- COLOR SCORE 5 MINUTES ([7]; pH 8, without salt 0.5): 0.5
- COLOR SCORE 5 MINUTES ([8]; pH 5, without salt 0): 0
- COLOR SCORE 5 MINUTES ([8]; pH 8, without salt 0.5): 0

Molecule: CCN1C(=O)C=CC1=O [NEM, N-ethylmaleimide]
- TEST COLOR ([1]; inhibitor 0.5 mM): 2
- TEST COLOR ([2]; CONCENTRATION (Mm) 2): 2
- TEST COLOR ([3]; CONCENTRATION (Mm) 2): 2

Molecule: O=C(O)c1cc[c]([Hg][Cl])cc1 [PCMB, para-chloromercuribenzoate]
- TEST COLOR ([1]; inhibitor 0.5 mM): 2

Molecule: O=S(=O)(F)Cc1ccccc1 [PMSF, phenyl methyl sulfonyl fluoride]
- TEST COLOR ([1]; inhibitor 2 mM): 2
- TEST COLOR ([2]; CONCENTRATION (Mm) 0.5): 2
- TEST COLOR ([3]; CONCENTRATION (Mm) 0.5): 1
- inhibited activity ([3]; hydrolysis of T-boc-VAL.LEU.LYS.AMC): approximately 50%

Molecule: Cc1cc(=O)oc2cc(NC(=O)[C@H](CCCCN)NC(=O)[C@H](CC(C)C)NC(=O)[C@@H](NC(=O)OC(C)(C)C)C(C)C)ccc12 [T-boc.VAL. LEU.LYS.AMC, Tert-butyloxycarbonyl-L-valyl-L-leucyl.L-lysyl-7-amino-4-methyl coumarin] (Boc-Val-Leu-Lys-{AMC})
- M. CURTISII PDMAC COLOR (PREP., pH) [9]: 2

Molecule: Cc1ccc(S(=O)(=O)N[C@@H](CCCCN)C(=O)CCl)cc1 [TLCK, N-tosyl-L-lysine-chloromethyl ketone]
- TEST COLOR ([2]; CONCENTRATION (Mm) 0.5): 0.5
- TEST COLOR ([3]; CONCENTRATION (Mm) 0.5): 0

Molecule: Cc1ccc(S(=O)(=O)N[C@@H](Cc2ccccc2)C(=O)CCl)cc1 [TPCK, N-tosyl-L-phenylalanine chloromethyl ketone]
- TEST COLOR ([1]; inhibitor 0.5 mM): 2
- TEST COLOR ([2]; CONCENTRATION (Mm) 0.5): 0.5
- TEST COLOR ([3]; CONCENTRATION (Mm) 0.5): 0

Molecule: CC(C)CC(=O)N[C@H](C(=O)N[C@H](C(=O)N[C@@H](CC(C)C)[C@@H](O)CC(=O)N[C@@H](C)C(=O)N[C@@H](CC(C)C)[C@@H](O)CC(=O)O)C(C)C)C(C)C [pepstatin] (Isovaleryl-VV[Sta]A[Sta]-OH)
- TEST COLOR ([1]; inhibitor 0.5 mM): 2
- TEST COLOR ([2]; CONCENTRATION (Mm) 0.5): 2
- TEST COLOR ([3]; CONCENTRATION (Mm) 0.5): 2

Molecule: CCCCCCCCCCCCCCCCCCOS(=O)(=O)[O-].[Na+] [sodium octadecyl sulfate]
- COLOR ([10]; detergent (10 µL) added after the 10 minute incubation, with the chromogen): red
- COLOR ([10]; detergent among first additions, present with cells and PRO.NAM during the 10 minute incubation, red = hydrolysis, yellow = none): yellow

Molecule: CrCl2
- TEST COLOR ([5]; metal salt 20 mM): 2

Molecule: MgCl2
- TEST COLOR ([5]; metal salt 20 mM): 2

Molecule: cupric chloride [CuCl2]
- TEST COLOR ([4]; metal salt 1 mM): 1
- TEST COLOR ([5]; metal salt 5 mM): 0
- TEST COLOR [11]: 0

Molecule: mercuric chloride [HgCl2]
- TEST COLOR ([5]; metal salt 1 mM): 0

Molecule: zinc chloride [ZnCl2]
- TEST COLOR ([4]; metal salt 1 mM): 1
- TEST COLOR ([5]; metal salt 20 mM): 2
- TEST COLOR [12]: 0.5
- COLOR SCORE 5 MINUTES ([7]; pH 5, without salt 1): 1
- COLOR SCORE 5 MINUTES ([7]; pH 8, without salt 0.5): 0.5
- COLOR SCORE 5 MINUTES ([8]; pH 5, without salt 0): 0
- COLOR SCORE 5 MINUTES ([8]; pH 8, without salt 0.5): 0
